Laboratory results published in patent US20190282673A1, “STAPHTAME ACTIVITY ON BIOFILMS” (priority 2016, published 2019).
Like-named read-outs stand apart in the source and are kept apart here.

Experiments:
S. aureus = test: MIC and checkerboard synergy (broth microdilution) on planktonic cells; assay type: cell-based, Staphylococcus aureus; conditions: for MIC: Staphylococcus aureus, read-out: MIC (drug alone)
Method: MIC was determined using a modified Clinical and Laboratory Standards Institute (CLSI) broth microdilution procedure described earlier in Vipra, et al. (2012) “Antistaphylococcal activity of bacteriophage derived chimeric protein P128” BMC Microbiol. 12:41-50; and Clinical and Laboratory Standards Institute (2012) “Methods for Dilution Antimicrobial Susceptibility Tests for Bacteria That Grow Aerobically; Approved Standard” CLSI document M07-A9.9 ed. Wayne, Pa. USA. In order to determine effects of combinations of P128 with antibiotics, combinations of various dilutions of P128 and a second drug were tested for growth inhibition using a microdilution checkerboard technique. See Lu, et al. (2013) “In vitro activity of sodium new houttuyfonate alone and in combination with oxacillin or netilmicin against methicillin-resistant Staphylococcus aureus” PLoS One 8:e68053. Briefly, S. aureus culture at a final cell number of 5×10^5 CFU/mL was added to wells of 96-well microtiter plates (precoated with 0.5% BSA), containing two-fold dilutions of P128 and the second drug in cation adjusted Mueller Hinton Broth (CAMHB). The plates were incubated at 37° C. for 24 h and the individual MICs and the combination MICs were read. The fractional inhibitory concentration index (FICI) was determined using the following equation: FICI=(MIC of drug A in the combination/MIC of drug A alone)+(MIC of drug B in the combination/MIC of drug B alone). The combination was considered to be synergistic when the FICI was ≤0.5; additive when FICI was 0.5-1.0; indifferent when FICI was 1-4 and antagonistic when FICI≥4. The experiments were performed in triplicate and repeated twice.
In order to find out whether P128 can act in a synergistic manner with commonly used antibiotics, MIC based growth inhibition assays were performed. MIC based synergy was studied by checkerboard method by determining the FIC index using the method of Lu, et at (2013) “In vitro activity of sodium new houttuyfonate alone and in combination with oxacillin or netilmicin against methicillin-resistant Staphylococcus aureus” PLoS One 8:e68053. […] Similarly.
(§1) Bacterial cultures at a final cell number of 5×10^5 CFU/mL was added to wells of 96-well microtiter plates (precoated with 0.5% BSA), containing two-fold dilutions of P128 and the second drug in cation adjusted Mueller Hinton Broth (CAMHB). The plates were incubated at 37° C. for 24 h and the individual MICs and the combination MICs were read. The fractional inhibitory concentration index (FICI) was determined using the following equation: FICI=(MIC of drug A in the combination/MIC of drug A alone)+(MIC of drug B in the combination/MIC of drug B alone). The combination was considered to be synergistic when the FICI was ≤0.5; additive when FICI was 0.5-1.0; indifferent when FICI was 1-4 and antagonistic when FICI≥4.

S. aureus biofilms = test: MBIC and checkerboard synergy on preformed biofilm (MTT assay); assay type: cell-based, Staphylococcus aureus
Method: […] LB supplemented with 50 μg/mL CaCl2 was used for daptomycin treatment wells. The contents of the well was aspirated out and discarded. The biofilm adhered to the wells was quantified by MTT assay as described above. The MBIC was defined as the minimum concentration of P128 or the drug showing no colour development. […] In each experiment, in addition to the combination MBIC, the MBIC of each drug was also determined individually. The fractional MBIC concentrations were determined by MTT dye method as described above. The FICI and synergy was also calculated in a similar manner.
The ability of P128 to inhibit growth of S. aureus in a preformed biofilm was measured by determining minimum biofilm inhibition concentration (MBIC), defined as minimum concentration showing growth inhibition in a MTT based assay. […] 11:226.
The assay was optimized using the standard S. aureus strain ATCC 29213. An overnight-grown culture of the strain was diluted 1:40 in LB broth 200 μL of diluted culture was aliquoted into microtiter plate wells. Microplates were placed in a shaker-incubator set to 37° C., and 100 rpm for 24 h followed by 48 h incubation under static conditions at 37° C. The contents of one set of four wells were aspirated and discarded. Wells were washed twice with 1×PBS and the presence of biofilm in the wells at the end of this 72-hour period was determined by metabolic dye-reduction assay method using MTT (3-(4, 5-dimethylthiazol-5-diphenyltetrazolium bromide; Himedia). In this assay, live cells reduce the dye leading to color formation which can be read at 570 nm, and the intensity of color can be correlated to number of live cells. 100 μL of PBS was added to the wells along with 10 μL of MTT solution. The plate was incubated for 2 h in the dark. After this, 110 μL of solvent solution solubilizing agent was added and the plate was incubated for 15 minutes at ambient temperature with gentle agitation. The absorbance was read at 570 nm in a microplate reader. Another set of four wells was processed for harvesting the biofilm and determination of CFUs present by plating on solid media. For biofilm inhibitory studies, the wells were washed twice with 1×PBS and challenged with various concentrations of P128 or other antibiotic drugs and incubated for 24 h at 37° C. The contents of the well was aspirated out and discarded. The biofilm adhered to the wells was quantified by MTT assay as described above. The MBIC was defined as the minimum concentration of P128 or the drug showing no colour development. […] In each experiment, in addition to the combination MBIC, the MBIC of each drug was also determined individually. The fractional MBIC concentrations were determined by MTT dye method as described above. The FICI and synergy was also calculated in a similar manner.
In order to determine whether P128 could synergize with known anti-Staphylococcus drugs to inhibit S. aureus in biofilms. […] The assays were performed in a 96 well checkerboard format using various concentrations of P128 and one of the antibiotics.

S. epidermidis = test: MIC and checkerboard synergy (broth microdilution) on planktonic cells; assay type: cell-based, Staphylococcus epidermidis; conditions: for MIC: Staphylococcus epidermidis
Method: as §1
S. epidermidis culture at a final cell number of 5×10^5 CFU/mL was added to wells of 96-well microtiter plates (precoated with 0.5% BSA), containing two-fold dilutions of P128 and either Daptomycin or Oxacillin in cation adjusted Mueller Hinton Broth (CAMHB). CAMHB was supplemented with 50 µg/mL Ca^++ for daptomycin assay. The plates were incubated at 37° C. for 24 h and the individual MICs and the combination MICs were read. The fractional inhibitory concentration index (FICI) was determined using the following equation: FICI=(MIC of drug A in the combination/MIC of drug A alone)+(MIC of drug B in the combination/MIC of drug B alone). The combination was considered to be synergistic when the FICI was ≤0.5; additive when FICI was between 0.5-1.0; indifferent when FICI was between 1-4 and antagonistic when FICI was ≥4. The experiments were performed in triplicate and repeated twice.

S. aureus BK1 biofilms = test: Scanning electron microscopy of treated biofilms in microtitre plates; assay type: cell-based, Staphylococcus aureus; conditions: Gentamycin 50 μg/mL; P128 12.5 μg/mL (lowest concentration tested)
Method: MRSA strain BK1 or MW2 was used for studying biofilm eradication activity of P128 by SEM. For this, biofilms formed in microtitre plates or on the surface of catheters were treated with increasing concentrations of P128 or antibiotics and subjected to SEM. S. aureus BK1 or MW2 was revived on blood agar plates and the culture was grown overnight in TSB supplemented with 20% glucose. The overnight-grown culture was diluted 1:50 in TSB with 2% glucose to achieve OD600=˜0.1. 200 μL of the diluted culture was aliquoted into each well of the 96 well plate and incubated at 37° C. under static conditions for 18 h. After incubation the contents were aspirated, washed twice with 200 μL of PBS, and 100 μL of media+100 μL of drug were added to each well and incubated again at 37° C. for 18 h. The contents were aspirated, washed with 200 μL of PBS and allowed to dry at 37° C. for 15 min. The individual wells were cut out and biofilms visualized by SEM.

[1] = Table 4, S. aureus ATCC 29213 preformed biofilm, 6 h
[2] = Table 4, S. aureus ATCC 29213 preformed biofilm, 24 h
[3] = Table 4, S. aureus B9241 preformed biofilm, 6 h
[4] = Table 4, S. aureus B9241 preformed biofilm, 24 h
[5] = Table 4, S. aureus BK1 preformed biofilm, 6 h
[6] = Table 4, S. aureus BK1 preformed biofilm, 24 h

Molecule: CC[C@H]1OC(=O)[C@H](C)[C@@H](O[C@H]2C[C@@](C)(OC)[C@@H](O)[C@H](C)O2)[C@H](C)[C@@H](O[C@@H]2O[C@H](C)C[C@H](N(C)C)[C@H]2O)[C@](C)(O)C[C@@H](C)CN(C)[C@H](C)[C@@H](O)[C@]1(C)O [Azithromycin, azithromycin]
- MIC (S. aureus; 24 h, S. aureus BK18): 2 µg/mL

Molecule: Cc1nnc(SCC2=C(C(=O)O)N3C(=O)[C@@H](NC(=O)Cn4cnnn4)[C@H]3SC2)s1 [Cephazolin, cephazolin]
- MIC (drug alone) (S. aureus; S. aureus COL (MRSA)): >10 µg/mL
- MIC (drug alone) (S. aureus; S. aureus MW2 (MRSA)): 5 µg/mL
- MIC (drug alone) (S. aureus; S. aureus USA 300 (MRSA)): >10 µg/mL

Molecule: O=C(O)c1cn(C2CC2)c2cc(N3CCNCC3)c(F)cc2c1=O [Ciprofloxacin, ciprofloxacin, reference compound]
- MBIC (individual) (S. aureus biofilms; [1]): >250 µg/mL
- MBIC (individual) (S. aureus biofilms; [2]): 6.5 µg/mL
- MBIC (individual) (S. aureus biofilms; [3]): >250 µg/mL
- MBIC (individual) (S. aureus biofilms; [4]): 250 µg/mL
- MBIC (individual) (S. aureus biofilms; [5]): >250 µg/mL
- MBIC (individual) (S. aureus biofilms; [6]): >250 µg/mL

Molecule: Cc1onc(-c2ccccc2)c1C(=O)N[C@@H]1C(=O)N2[C@@H]1SC(C)(C)[C@@H]2C(=O)O [Oxacillin, oxacillin]
- MIC (S. aureus; MRSA / USA300, 24 h, S. aureus USA 300 (MRSA)): > 16 µg/mL
- MIC (S. aureus; MRSA, 24 h, MRSA strain BK22): > 16 µg/mL
- MIC (S. aureus; MRSA, 24 h, S. aureus COL (MRSA)): > 16 µg/mL
- MIC (S. aureus; MRSA, 24 h, S. aureus MW2 (MRSA)): > 16 µg/mL
- MIC (drug alone) (S. epidermidis; S. epidermidis B9470): 16 µg/mL
- MIC (drug alone) (S. epidermidis; S. epidermidis B9471): 16 µg/mL
- MIC (S. epidermidis; S. epidermidis B9467, read-out: MIC (drug alone)): 8 µg/mL
- MIC (S. epidermidis; S. epidermidis B9468, read-out: MIC (drug alone)): 0.12 µg/mL
- MIC (S. epidermidis; S. epidermidis B9470, read-out: MIC (drug alone)): > 8 µg/mL
- MIC (S. epidermidis; S. epidermidis B9471, read-out: MIC (drug alone)): > 8 µg/mL
- MIC (S. epidermidis; S. epidermidis B9472, read-out: MIC (drug alone)): 16 µg/mL
- MIC (S. epidermidis; S. epidermidis B9473, read-out: MIC (drug alone)): 16 µg/mL
- MIC (S. epidermidis; S. epidermidis, read-out: MIC on resistant strains): 0.12 µg/mL
- MIC (S. epidermidis; S. epidermidis, read-out: MIC on the sensitive strains): 16 µg/mL

Molecule: CN(C)c1cc(NC(=O)CNC(C)(C)C)c(O)c2c1C[C@H]1C[C@H]3[C@H](N(C)C)C(O)=C(C(N)=O)C(=O)[C@@]3(O)C(O)=C1C2=O [Tigecycline]
- MIC (S. aureus; 24 h, S. aureus BK18): 4 µg/mL

Molecule: gentamycin [reference compound]
- MIC (drug alone) (S. aureus; S. aureus ATCC 29213 (MSSA)): 0.4 µg/mL
- MIC (drug alone) (S. aureus; S. aureus B9241 (gentamycin and ciprofloxacin resistant)): 62 µg/mL
- MIC (drug alone) (S. aureus; S. aureus BK1 (MRSA, ciprofloxacin resistant)): 0.4 µg/mL
- MIC on resistant strains (S. aureus; planktonic S. aureus, strains resistant to the drug): 62 µg/mL
- MIC on sensitive strains (S. aureus; planktonic S. aureus, strains sensitive to the drug): 0.4 µg/mL
- Effect on biofilm by SEM (S. aureus BK1 biofilms): did not have any appreciable effect
- MBIC (individual) (S. aureus biofilms; [1]): >1000 µg/mL
- MBIC (individual) (S. aureus biofilms; [2]): >1000 µg/mL
- MBIC (individual) (S. aureus biofilms; [3]): >1000 µg/mL
- MBIC (individual) (S. aureus biofilms; [4]): >1000 µg/mL
- MBIC (individual) (S. aureus biofilms; [5]): >1000 µg/mL
- MBIC (individual) (S. aureus biofilms; [6]): >1000 µg/mL
- Reduction in MBIC in combination with P128 (S. aureus biofilms; gentamycin sensitive strains ATCC29213 and BK1): > 250 fold
